Reference: patent publication US20250304578A1, “NITROGEN-CONTAINING FUSED HETEROCYCLIC COMPOUNDS OF N-SULFONAMIDE AND USE THEREOF” (NUTSHELL THERAPEUTICS (SHANGHAI) CO., LTD., priority 2023, published 2025)
Read-outs that look alike come from different tables or passages of the source.

Key:
Assay type in all cases: in vitro ADME
[1] = target: CYP2D6 (Homo sapiens (Human), UniProt P10635); test: Inhibitory activity on CYP isoenzymes at a single concentration; details: pH 7.4, probe dextromethorphan; final compound concentration 10 μM; human liver microsomes; substrate dextromethorphan; read-out: Inhibition rate (%) CYP2D6
Sequence of CYP2D6 (P10635 whole entry): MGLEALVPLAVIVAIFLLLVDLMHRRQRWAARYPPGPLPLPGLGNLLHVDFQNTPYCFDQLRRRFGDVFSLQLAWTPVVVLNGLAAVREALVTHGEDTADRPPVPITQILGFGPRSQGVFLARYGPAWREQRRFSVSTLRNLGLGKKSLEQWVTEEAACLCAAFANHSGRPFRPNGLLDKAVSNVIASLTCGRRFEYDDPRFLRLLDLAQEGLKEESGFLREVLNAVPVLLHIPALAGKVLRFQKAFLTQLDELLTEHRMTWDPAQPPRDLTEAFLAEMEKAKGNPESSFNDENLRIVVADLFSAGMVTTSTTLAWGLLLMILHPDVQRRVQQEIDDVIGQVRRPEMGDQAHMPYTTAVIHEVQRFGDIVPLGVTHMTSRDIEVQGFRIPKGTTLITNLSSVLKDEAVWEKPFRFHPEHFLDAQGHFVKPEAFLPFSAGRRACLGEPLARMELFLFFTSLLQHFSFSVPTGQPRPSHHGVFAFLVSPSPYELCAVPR
Source text: (§1) The buffer was filtered through a 0.45 μm filter.

[2] = target: CYP2C9 (Homo sapiens (Human), UniProt P11712); test: as above; details: pH 7.4, probe diclofenac; final compound concentration 10 μM; human liver microsomes; substrate diclofenac; read-out: Inhibition rate (%) CYP2C9
Sequence of CYP2C9 (P11712 whole entry): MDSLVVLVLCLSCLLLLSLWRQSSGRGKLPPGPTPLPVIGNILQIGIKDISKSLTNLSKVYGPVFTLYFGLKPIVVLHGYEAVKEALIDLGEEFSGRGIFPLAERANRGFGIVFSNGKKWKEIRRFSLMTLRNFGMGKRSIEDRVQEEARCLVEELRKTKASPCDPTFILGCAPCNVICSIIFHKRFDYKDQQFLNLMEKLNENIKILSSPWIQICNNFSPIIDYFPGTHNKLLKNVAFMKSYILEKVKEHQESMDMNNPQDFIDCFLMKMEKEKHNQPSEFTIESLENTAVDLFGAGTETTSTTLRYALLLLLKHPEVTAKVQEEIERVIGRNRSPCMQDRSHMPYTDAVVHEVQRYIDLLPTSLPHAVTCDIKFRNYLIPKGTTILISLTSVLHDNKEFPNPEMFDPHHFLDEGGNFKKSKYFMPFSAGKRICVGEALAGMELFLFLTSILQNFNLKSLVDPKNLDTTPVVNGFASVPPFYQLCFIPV
Source text: as §1

[3] = test system: CYP3A4/5; test: as above; details: final compound concentration 10 μM, human liver microsomes
Source text: as §1

[4] = test system: CYP3A4/5; test: Multi-concentration inhibitory activity curve of CYP3A4/5 enzymes; details: human liver microsomes
Protocol: as §1
Liver microsome working solution (final system concentration of 0.5 mg/mL) was prepared. […] The above stock solution was diluted with acetonitrile (4-fold dilution, 6 non-zero concentrations).
The half-maximal inhibitory concentration (IC50) was calculated using Graph Pad Prism.

[5] = Metabolic stability test in hepatocytes; details: cryopreserved hepatocytes in suspension; for hepatocyte CLint at 1 μM: read-out: In vitro Clint (μL/min/10^6 cells); for half-life at 1 μM: read-out: In vitro t1/2
Protocol: The test compound and the control drug verapamil powder were prepared into a high concentration stock solution using DMSO, and diluted to a 100 μM working solution with 50% acetonitrile/water before use, with final concentrations of 1 μM for the test compound and verapamil.
• 1) 49.5 mL of Williams' Medium E and 0.5 mL GlutaMAX were mixed as the incubation solution. The hepatocyte recovery solution and the incubation solution were pre-warmed in a 37° C. water bath for at least 15 minutes prior to use. • 2) A tube of cryopreserved hepatocytes was taken, ensuring that the hepatocytes were still in a cryogenic frozen state prior to resuscitation. The hepatocytes were quickly placed in a 37° C. water bath and gently shaken until all ice crystals were completely dispersed, sprayed with 70% ethanol and transferred to a biosafety cabinet. • 3) The contents of the hepatocyte tube were poured into a centrifuge tube containing 50 mL of recovery medium, which were centrifuged at 100 g for 10 minutes. After centrifugation, the recovery medium was aspirated, and sufficient incubation medium was added to obtain a cell suspension having a cell density of approximately 1.5×10^6 cells/mL. • 4) Cellometer Vision was used to count hepatocytes and determine the density of viable cells. The survival rate of hepatocytes must be greater than 75%. The hepatocyte suspension was diluted with incubation medium to a viable cell density of 0.5×10^6 cells/mL. • 5) A portion of hepatocyte suspension with a density of 0.5×10^6 cells/mL was boiled in water for 5 minutes to inactivate as a negative control. After cells were inactivated, substrate conversion mediated by non-cellular enzymes could be easily investigated.
• 1) 198 μL of the suspension of live or inactivated cells was transferred to a 96-well deep-well plate, which was then placed on a vortexer and preheated in an incubator for 10 minutes. Live cells were incubated in duplicate, while inactivated cells were incubated in single. • 2) 2 μL of 100 μM test compound or verapamil was added to each well for the reaction initiation, and the deep-well plate was placed back on the incubator vortexer. • 3) 25 μL of the suspension were taken from the incubated samples at 0, 15, 30, 60, 90, and 120 minutes, respectively, and added to 150 μL of acetonitrile containing internal standards (200 nM alprazolam, 200 nM labetalol, 2 μM ketoprofen, and 200 nM caffeine) to terminate the reaction. The mixture was vortexed for 10 minutes and centrifuged at 3220 g and 4° C. for 30 minutes. After centrifugation was completed, 100 μL of the supernatant and 100 μL of ultra-pure water were mixed well for UPLC-MS/MS analysis detection.
All data calculations were performed using Microsoft Excel software. Peak areas were detected by extracting the ion chromatogram. The in vitro half-life (t1/2) of the parent drug was detected by linear fitting of the natural logarithm of the percentage of parent drug […] with time.
The in vitro half-life (t1/2) was calculated by the slope: […]
In vitro intrinsic clearance (unit μL/min/10^6 cells) was calculated using the following formula:
[formula] • V=incubation volume per well (0.2 mL); • N=number of cells per well (0.1×10^6 cells)

[6] = pH 7.4, probe midazolam, substrate midazolam, read-out: Inhibition rate (%) CYP3A4/5 (Midazolam)
[7] = pH 7.4, probe midazolam, substrate midazolam, read-out: CYP3A4/5 IC50 (μM) (Midazolam)
[8] = pH 7.4, probe testosterone, substrate testosterone, read-out: CYP3A4/5 IC50 (μM) (Testosterone)

Structure (SMILES): COc1nc(C(=O)NS(C)(=O)=O)ccc1NCC#Cc1cc2c(N[C@@H]3CCN(C)C[C@@H]3F)cccn2c1CC(F)(F)F [Cpd-1, 5-((3-(8-(((3S,4R)-3-Fluoro-1-methylpiperidin-4-yl)amino)-3-(2,2,2-trifluoroethyl)indolizin-2-yl)prop-2-yn-1-yl)amino)-6-methoxy-N-(methylsulfonyl)picolinamide]
- inhibition at 10 min, 10 µM [1]: 1.6%
- inhibition at 10 min, 10 µM [2]: 6.7%
- inhibition at 10 min, 10 µM [3, 6]: 9.8%
- inhibition at 10 min, 10 µM ([3]; pH 7.4, probe testosterone, substrate testosterone, NI: no inhibition, read-out: Inhibition rate (%) CYP3A4/5 (Testosterone)): 3.7%
- IC50 at 10 min [4, 7]: > 50 µM
- IC50 at 10 min [4, 8]: > 50 µM
- hepatocyte CLint at 1 μM ([5]; Human hepatocytes): < 2.7 µL/min/1e6 cells
- half-life at 1 μM ([5]; Human hepatocytes): > 8.52 h
- hepatocyte CLint at 1 μM ([5]; Mouse hepatocytes): < 2.7 µL/min/1e6 cells
- half-life at 1 μM ([5]; Mouse hepatocytes): > 8.52 h
- hepatocyte CLint at 1 μM ([5]; Rat hepatocytes): < 2.7 µL/min/1e6 cells
- half-life at 1 μM ([5]; Rat hepatocytes): > 8.52 h

Structure (SMILES): [2H]C([2H])([2H])Oc1nc(C(=O)NS(C)(=O)=O)ccc1NCC#Cc1cc2c(N[C@@H]3CCN(C)C[C@@H]3F)cccn2c1CC(F)(F)F [Cpd-2, 5-((3-(8-(((3S,4R)-3-Fluoro-1-methylpiperidin-4-yl)amino)-3-(2,2,2-trifluoroethyl)indolizin-2-yl)prop-2-yn-1-yl)amino)-6-(methoxy-d3)-N-(methylsulfonyl)picolinamide]
- inhibition at 10 min, 10 µM [1]: 7.2%
- inhibition at 10 min, 10 µM [2]: 8.9%
- inhibition at 10 min, 10 µM [3, 6]: 8.7%
- IC50 at 10 min [4, 7]: > 50 µM
- IC50 at 10 min [4, 8]: > 50 µM
- hepatocyte CLint at 1 μM ([5]; Human hepatocytes): < 2.7 µL/min/1e6 cells
- half-life at 1 μM ([5]; Human hepatocytes): > 8.52 h
- hepatocyte CLint at 1 μM ([5]; Mouse hepatocytes): < 2.7 µL/min/1e6 cells
- half-life at 1 μM ([5]; Mouse hepatocytes): > 8.52 h
- hepatocyte CLint at 1 μM ([5]; Rat hepatocytes): < 2.7 µL/min/1e6 cells
- half-life at 1 μM ([5]; Rat hepatocytes): > 8.52 h
